The source of these data is US20030104473A1, “Common ligand mimics: benzimidazoles” (priority 2001, published 2003).

pIC50: −log10 of the molar value. Like-named read-outs stand apart in the source and are kept apart here.

Format in all cases: biochemical
The target of test [1] is inosine-5′-monophosphate dehydrogenase (IMPDH). The test can be described thus: IMPDH kinetic assay, spectrophotometric reduction of NAD+ at 340 nm. Particulars: Example 13 oxidoreductase panel (FIG. 7). As to the method:
For IMPDH analysis, the compounds were screened using a kinetic protocol that spectrophotometrically evaluates reduction of NAD+.
Stock solutions of each of the reagents were prepared in the following concentrations. Dilutions of the stock solutions were prepared prior to running the assay in the concentrations indicated below.
The IMPDH reaction was monitored at 340 nm prior to and after addition of the inhibitor to detect background reaction with the inhibitor. Solutions of 100 μl of the inhibitors in DMSO were prepared to provide a final DMSO concentration of 5% of the total assay volume. These solutions were incubated for 6 minutes at 37° C. in a 992 μl of a solution containing 0.1 M Tris-HCl, pH 8.0, 0.25 M KCl, 0.3% glycerol, 30 μM NAD+, and 600 μM IMP (inosine monophosphate). The reaction was then initiated with 8 μl of IMPDH (0.75 μg/ml). After the enzyme was added, the solution was mixed for 20 seconds, and the reaction was run for 10 minutes. After a 50 second lag, the samples were read in a Cary spectrophotometer at 340 nm. Reading of the samples was continued until 300 seconds. Cuvette #1 contained the control reaction (no inhibitor), and cuvette #2 contained the positive control reaction in which Cibacron Blue was substituted for inhibitor. The substrate was kept at a level at least 10 times the Km.

Test [2] addresses dihydrofolate reductase (DHFR) (UniProt P00374). The test is described as follows: DHFR kinetic assay, spectrophotometric oxidation of NADH at 340 nm. How it is done: For DHFR analysis, the compounds were screened using a kinetic protocol that spectrophotometrically evaluates oxidation of NADH.
Stock solutions of each of the reagents were prepared in the following concentrations. Dilutions of the stock solutions were prepared prior to running the assay in the concentrations indicated below. H2 folate was dissolved in DMSO to about 10 mM and then diluted with water to a concentration of 0.1 mM.
The DHFR reaction was monitored at 340 nm prior to and after addition of the inhibitor to detect background reaction with the inhibitor. Solutions of 100 μl of the inhibitors in DMSO were prepared to provide a final DMSO concentration of 5% of the total assay volume. These solutions were incubated for 6 minutes at 25° C. in a 992 μl of a solution containing 0.1 M Tris-HCl, pH 7.0, 150 mM KCl, 5 μM H2 folate, and 52 μM NADH. The oxidation reaction was then initiated with 8 μl of DHFR (0.047 mg/ml). After the enzyme was added, the solution was mixed for 20 seconds, and the reaction was run for 10 minutes. After a 50 second lag, the samples were read in a Cary spectrophotometer at 340 nm. Reading of the samples was continued until 300 seconds. Cuvette #1 always contained the control reaction (no inhibitor), and cuvette #2 always contained the positive control reaction in which Cibacron Blue at 3 μM was substituted for inhibitor to yield 50 to 70% inhibition. […]

In test [3] the target is 1-deoxy-D-xylulose-5-phosphate reductase (DOXPR) (Escherichia coli, UniProt P45568). The test is described as follows: DOXPR kinetic assay, spectrophotometric oxidation of NADPH at 340 nm. How it is done: For DOXPR analysis, the compounds were screened using a kinetic protocol that spectrophotometrically evaluates oxidation of NADPH.
1-deoxy-D-xylulose-5-phosphate reductase (DOXPR), sequence (P45568 whole entry): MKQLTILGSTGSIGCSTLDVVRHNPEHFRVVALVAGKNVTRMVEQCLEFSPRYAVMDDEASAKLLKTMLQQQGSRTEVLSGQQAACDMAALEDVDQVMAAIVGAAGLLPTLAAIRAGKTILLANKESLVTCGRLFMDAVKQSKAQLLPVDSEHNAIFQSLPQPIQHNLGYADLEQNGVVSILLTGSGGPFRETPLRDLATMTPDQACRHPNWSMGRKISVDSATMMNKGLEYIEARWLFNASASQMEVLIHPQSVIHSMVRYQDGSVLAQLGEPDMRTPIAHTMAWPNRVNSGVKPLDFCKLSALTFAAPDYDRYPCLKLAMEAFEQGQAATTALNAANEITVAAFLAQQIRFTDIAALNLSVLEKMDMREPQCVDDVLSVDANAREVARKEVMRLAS
Stock solutions of each of the reagents were prepared in the following concentrations. Dilutions of the stock solutions were prepared prior to running the assay in the concentrations indicated below. DOXPR was diluted in 10 mM HEPES at a pH of 7.4.
The DOXPR reaction was monitored at 340 nm prior to and after addition of the inhibitor to detect background reaction with the inhibitor. Solutions of the inhibitors in DMSO were prepared to provide a final DMSO concentration of 5% of the total assay volume. These solutions were incubated for 6 minutes at 25° C. in a 990 μl of a solution containing 0.1 M HEPES, pH 7.4, 1 mM MnCl21.15 mM DOXP, and 8 μM NADPH. The oxidation reaction was then initiated with 10 μl of DOXP reductoisomerase (10 μg/ml). After the enzyme was added, the solution was mixed for 20 seconds, and the reaction was run for 10 minutes. After a 50 second lag, the samples were read in a Cary spectrophotometer at 340 nm. Reading of the samples was continued until 300 seconds. Cuvette #1 contained the control reaction (no inhibitor), and cuvette #2 contained the positive control reaction in which Cibacron Blue at 10.32 μM was substituted for inhibitor to yield 70 to 80% inhibition. The substrate was kept at a level at least 10 times the Km.

Test [4] addresses dihydrodipicolinate reductase (DHPR) (Escherichia coli, UniProt P04036). The test is described as follows: DHPR kinetic assay, spectrophotometric oxidation of NADPH at 340 nm. How it is done:
For DHPR analysis, the compounds were screened using a kinetic protocol that spectrophotometrically evaluates oxidation of NADPH.
Stock solutions of each of the reagents were prepared in the following concentrations. Dilutions of the stock solutions were prepared prior to running the assay in the concentrations indicated below. DHPR was diluted in 10 mM HEPES at a pH of 7.4. DHPS (dihydrodipicolinate synthase) was not diluted and was stored in eppindorf tubes.
The L-ASA (L-aspartate semialdehyde) solution was prepared in the following manner. […] stock solution of ASA was prepared. 100 μl of the ASA stock solution was mixed with 150 μl of concentrated NaHCO3 and 375 μl of H2O. For use in the assay, 28.8 mM L-ASA was equal to 625 μl of the solution. The L-ASA stock Aft solution was kept at a temperature of −20° C. After dilution, the pH of the 28.8 mM solution was checked and maintained between 1 and 2.
The DHPS reaction was monitored at 340 nm prior to and after addition of the inhibitor to detect background reaction with the inhibitor. The solution for background detection was a 945 μl solution containing 0.1 HEPES (pH 7.8), 1 mM pyruvate, 6 μM NADPH, 40 μM L-ASA, and 7 μl of 1 mg/ml DHPS at 25° C. in the volumes provided above. The sample solution was then mixed and incubated for 10 minutes. Next, 500 nM solutions of the inhibitors and enough DMSO to provide a final DMSO concentration of 5% of the total assay volume were added. The solution was mixed and incubated for an additional 6 minutes.
In DHPR samples, 5 μl of the diluted DHPR enzyme were added. The sample was mixed for 20 seconds and then the reaction was run for 10 minutes. After a 50 second lag, the samples were read in a Cary spectrophotometer at 340 nm. Reading of the samples was continued until 300 seconds. Cuvette #1 contained the control reaction (no inhibitor), and cuvette #2 contained the positive control reaction in which Cibacron Blue at 2.58 μM was substituted for inhibitor to yield 70 to 80% inhibition. The substrate was kept at a level at least 10 times the Km. The final concentration of L-ASA was about 1 mM.

dihydrodipicolinate reductase (DHPR), sequence (P04036 whole entry): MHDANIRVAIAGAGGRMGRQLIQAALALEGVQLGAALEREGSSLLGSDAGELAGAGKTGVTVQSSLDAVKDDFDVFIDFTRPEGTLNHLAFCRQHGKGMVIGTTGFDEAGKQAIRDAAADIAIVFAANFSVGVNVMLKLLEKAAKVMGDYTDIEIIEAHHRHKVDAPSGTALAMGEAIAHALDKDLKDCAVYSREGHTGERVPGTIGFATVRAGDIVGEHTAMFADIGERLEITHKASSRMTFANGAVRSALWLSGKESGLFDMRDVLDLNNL
dihydrofolate reductase (DHFR), sequence (P00374 whole entry): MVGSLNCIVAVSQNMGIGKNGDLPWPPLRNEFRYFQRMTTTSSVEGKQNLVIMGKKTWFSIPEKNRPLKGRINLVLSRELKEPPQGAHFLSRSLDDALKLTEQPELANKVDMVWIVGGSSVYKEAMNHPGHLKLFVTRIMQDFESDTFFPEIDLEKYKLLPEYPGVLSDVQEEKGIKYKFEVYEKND

For the molecule `O=C(O)c1ccc(-c2ccc(-c3nc4ccccc4[nH]3)o2)cc1` [compound 6b, 4-[5-(1H-benzoimidazol-2-yl)-furan-2-yl] benzoic acid], the pIC50 is 4.66 in test [1]; less than 4.40 in test [2] (Example 13 oxidoreductase panel (FIG. 7); read-out: IC50 for DHFR); less than 4.22 in test [3] (Example 13 oxidoreductase panel (FIG. 7), read-out: IC50 for DOXPR); less than 4.32 in test [4] (Example 13 oxidoreductase panel (FIG. 7), read-out: IC50 for DHPR); 4.49 in test [4] (Example 14, common ligand mimics (FIG. 8), read-out: IC50 for DHPR).

For `O=C(O)c1ccc(-c2ccc(-c3nc4cc([N+](=O)[O-])ccc4[nH]3)o2)cc1` [compound 6d, 4-[5-(5-nitro-1H-benzoimidazol-2-yl)-furan-2-yl]-benzoic acid], the pIC50 in test [1] is 4.80; in test [2] (read-out: IC50 for DHFR; Example 13 oxidoreductase panel (FIG. 7)) it was 4.31; in test [3], 4.67; in test [4] (IC50 for DHPR, Example 13 oxidoreductase panel (FIG. 7)), less than 4.12; in test [4] (IC50 for DHPR, Example 14, common ligand mimics (FIG. 8)) it was less than 4.12.
